What was measured:
rhodopsin = assay: Rhodopsin measured spectrophotometrically in retinal extracts of dark-adapted mice after 7 days oral dosing; type: in vivo; conditions: wild-type Balb/c mice, 25 mg/kg daily oral (chow), n=8
Experimental: FIG. 14. Effects of C20-D3-retinyl acetate on rhodopsin levels in ACPHS-52-treated Balb/c mice. Rhodopsin was measured spectrophotometrically in retinal extracts (n=8) from dark-adapted treated and control mice. Treated mice were given 7 daily oral dose of 25 mg/kg ACPHS-52 or the same dose of ACPHS-52 along with 3.3 mg/kg C20-D3-retinyl acetate. Untreated control mice were kept on standard diet.
ACPHS-52 was previously identified and described as a compound that exemplifies a novel class of bispecific ligands that act as both RBP4 antagonists and kinetic stabilizers of TTR tetramers (Cioffi, C. L. et al. 2020). Thus, ACPHS-52 was used as a representative “first component” of the present disclosure in order to assess the feasibility of the co-drug strategy. Accordingly, an experiment was conducted to determine whether partial reduction in functional rhodopsin (opsin with conjugated 11-cis-retinal) induced by oral ACPHS-52 in mice can be compensated by co-administration with C20-D3-retinyl acetate.
The experiment was conducted in Balb/c mice. Three groups of mice were used: control untreated mice; mice treated with ACPHS-52; and mice treated with the ACPHS-52 plus C20-D3-retinyl acetate combination. […] Rhodopsin was measured spectrophotometrically in retinal extracts (n=8) from dark-adapted treated and control mice using a previously published protocol (Racz, B. et al. 2018).

RBP4 [1] = conditions: in vivo; cited from earlier work
TTR tetramers = TTR tetramers (Homo sapiens, UniProt P02766); conditions: cited from earlier work
TTR = conditions: ATTR-CM patients with symptomatic, chronic heart failure, Phase III; cited from earlier work
[2] = tested on: lipofuscin bisretinoid synthesis; conditions: Abca4-/- mice; cited from earlier work
RBP4 [3] = conditions: non-human primates, oral administration; cited from earlier work
RBP4 [4] = target: T1, RBP4 (Mus musculus, UniProt Q00724); conditions: rodents; cited from earlier work
T1 construct: circulating RBP4 plasma levels in rodents; host or cells: plasma/serum of rodents

[5] = Phase 2, dry AMD patients; cited from earlier work
[6] = long-term use, cancer patients; cited from earlier work
[7] = cited from earlier work
[8] = patients treated for TTR amyloidosis; cited from earlier work

## Cc1cc(C(=O)O)nc(N2CCC(COc3ccccc3C(F)(F)F)C2)n1 (stereo not shown) [ACPHS-52]
rhodopsin
  reduction in rhodopsin in comparison to untreated mice: 3 fold
RBP4 [1]
  effect on serum RBP4: pronounced reduction in serum RBP4
TTR tetramers
  effect on TTR tetramers: stabilization of TTR tetramers

## Cc1n[nH]c(C)c1CCCOc1cc(C(=O)O)ccc1F [AG10]
TTR
  stabilization of TTR: near-complete stabilization of TTR

## [2H]C([2H])([2H])C(/C=C/C=C(C)/C=C/C1=C(C)CCCC1(C)C)=C\COC(C)=O [C20-D3-retinyl acetate]
[2]
  effect on retinal bisretinoid accumulation/synthesis: effective in inhibiting bisretinoid synthesis

## Cc1cc(C(=O)O)nc(N2C[C@H]3CC(c4ccccc4C(F)(F)F)C[C@H]3C2)n1 (stereo partly shown) [Compound 8, BPN-14136]
RBP4 [3]
  effect on serum RBP4 levels: robustly lowered serum RBP4 levels
[2]
  effect on retinal bisretinoid accumulation/synthesis: inhibited lipofuscin bisretinoid synthesis

## O=C(O)c1ccccc1NC(=O)N1CCC(c2ccccc2C(F)(F)F)CC1 [Compound A1120, A1120]
[2]
  effect on retinal bisretinoid accumulation/synthesis: reduce retinal bisretinoid accumulation
RBP4 [4]
  lowering of circulating RBP4 plasma levels: > 70%

## CC1=C(/C=C/C(C)=C/C=C/C(C)=C/C(=O)Nc2ccc(O)cc2)C(C)(C)CCC1 [fenretinide]
[5]
  drug-treated patients with reversible reduction in dark adaptation: ~ 10%
[6]
  yearly prevalence of transient and reversible ocular AEs such as diminished dark adaptation: 5.8-6.7%

## O=C(O)c1ccc2nc(-c3cc(Cl)cc(Cl)c3)oc2c1 [tafamidis]
[7]
  patients who do not respond: Approximately 30%

## patisiran
[8]
  ocular adverse effect: symptoms of night blindness in a subset of patients
